Values belong to the compound of their own block, whether it stands above or below them. Calls of active or inactive are those of the source. The rule behind the calls is not given here.
Key:
Assay type in all cases: functional, cell-based
[1] = test system: PC-3; test: Antiproliferative activity against human PC3 cells after 72 hrs by MTT assay; details: PC-3, 72 h
[2] = test system: HeLa; test: Antiproliferative activity against human HeLa cells after 72 hrs by MTT assay
[3] = test system: MCF7; test: Antiproliferative activity against human MCF7 cells after 72 hrs by MTT assay; details: MCF7, 72 h
[4] = test system: Calu-1; test: Antiproliferative activity against human Calu1 cells after 72 hrs by MTT assay; details: Calu-1, 72 h
[5] = test system: U-251; test: Antiproliferative activity against human U251MG cells after 72 hrs by MTT assay; details: U-251, 72 h
[6] = test system: PC-3; test: Antiproliferative activity against human PC3 cells assessed as reduction in BrdU incorporation at 1 uM after 24 hrs by Hoechst staining based microscopic assay

SMILES: C[C@]12[C@H](O)C[C@H]3[C@@H](CC[C@H]4C[C@H]5O[C@@H]6O[C@H](CO)C[C@H](O)[C@]6(O)O[C@@H]5C[C@@]43C=O)[C@@]1(O)CC[C@@H]2C1=CC(=O)OC1
IC50 [1]: 900 nM
IC50 [2]: 2000 nM
IC50 [3]: 2800 nM
IC50 [4]: 2000 nM
IC50 [5]: 6000 nM
Activity [6]: Active

SMILES: C[C@]12CC[C@H]3[C@@H](CC[C@H]4C[C@@H](O)CC[C@@]43CO)[C@@]1(O)CC[C@@H]2C1=CC(=O)OC1 [COROGLAUCIGENIN]
IC50 [1]: 400 nM
IC50 [2]: 4200 nM
IC50 [3]: 7000 nM
IC50 [4]: 5800 nM
IC50 [5]: 5000 nM

SMILES: C[C@@H]1C[C@@H](O)[C@]2(O)O[C@@H]3C[C@@]4(CO)[C@@H](CC[C@@H]5[C@@H]4C[C@@H](O)[C@]4(C)[C@@H](C6=CC(=O)OC6)CC[C@]54O)C[C@H]3O[C@@H]2O1
IC50 [1]: 600 nM
IC50 [2]: 7000 nM
IC50 [3]: 5000 nM
IC50 [4]: 6000 nM
IC50 [5]: 8000 nM

SMILES: C[C@@H]1C[C@H](O)[C@]2(O)O[C@@H]3C[C@@]4(C=O)[C@@H](CC[C@@H]5[C@@H]4C[C@@H](O)[C@]4(C)[C@@H](C6=CC(=O)OC6)CC[C@]54O)C[C@H]3O[C@@H]2O1
IC50 [1]: 2100 nM
IC50 [2]: 600 nM
IC50 [3]: 200 nM
IC50 [4]: 600 nM
IC50 [5]: 1000 nM

SMILES: C[C@]12CC[C@H]3[C@@H](CC[C@H]4C[C@@H](O[C@@H]5O[C@H](CO)[C@@H](O)[C@H](O)[C@H]5O)CC[C@@]43CO)[C@@]1(O)CC[C@@H]2C1=CC(=O)OC1
IC50 [1]: 1000 nM
IC50 [2]: 300 nM
IC50 [3]: 8000 nM
IC50 [4]: 6000 nM
IC50 [5]: 6000 nM

IC50 [1]: 0.6 nM
IC50 [2]: 0.3 nM
IC50 [3]: 0.5 nM
IC50 [4]: 0.4 nM
IC50 [5]: 0.7 nM
SMILES: CC(=O)O[C@@]12CO[C@@H]1C[C@H](O)[C@@]1(C)C(=O)[C@H](O)C3=C(C)[C@@H](OC(=O)[C@H](O)[C@@H](NC(=O)OC(C)(C)C)c4ccccc4)C[C@@](O)([C@@H](OC(=O)c4ccccc4)[C@H]21)C3(C)C [DOCETAXEL ANHYDROUS]

SMILES: C[C@]12[C@H](O)C[C@H]3[C@@H](CC[C@H]4C[C@H]5O[C@@H]6O[C@H](CO)C[C@@H](O)[C@]6(O)O[C@@H]5C[C@@]43C=O)[C@@]1(O)CC[C@@H]2C1=CC(=O)OC1
IC50 [1]: 8900 nM
IC50 [2]: 300 nM
IC50 [3]: 2000 nM
IC50 [4]: 3700 nM
IC50 [5]: 5500 nM

SMILES: C[C@]12[C@H](O)C[C@H]3[C@@H](CC[C@H]4C[C@H]5O[C@@H]6O[C@H](CO)C[C@@H](O)[C@]6(O)O[C@@H]5C[C@@]43CO)[C@@]1(O)CC[C@@H]2C1=CC(=O)OC1 [GHALAKINOSIDE]
IC50 [1]: 4200 nM
IC50 [2]: 900 nM
IC50 [3]: 600 nM
IC50 [4]: 700 nM
IC50 [5]: 5200 nM

SMILES: C[C@]12[C@H](O)C[C@H]3[C@@H](CC[C@H]4C[C@@H](O)CC[C@@]43CO)[C@@]1(O)CC[C@@H]2C1=CC(=O)OC1
IC50 [1]: 8400 nM
IC50 [2]: 900 nM
IC50 [3]: 2500 nM
IC50 [4]: 1300 nM
IC50 [5]: 5000 nM

SMILES: C[C@@H]1C[C@@H](O)[C@]2(O)O[C@@H]3C[C@@]4(C=O)[C@@H](CC[C@@H]5[C@@H]4C[C@@H](O)[C@]4(C)[C@@H](C6=CC(=O)OC6)CC[C@]54O)C[C@H]3O[C@@H]2O1
IC50 [1]: 300 nM
IC50 [2]: 2500 nM
IC50 [3]: 6000 nM
IC50 [4]: 7000 nM
IC50 [5]: 5300 nM
Activity [6]: Active

SMILES: C[C@]12CC[C@H]3[C@@H](CC[C@H]4C[C@H]5O[C@@H]6O[C@H](CO)C[C@@H](O)[C@]6(O)O[C@@H]5C[C@@]43CO)[C@@]1(O)CC[C@@H]2C1=CC(=O)OC1
IC50 [1]: 3000 nM
IC50 [2]: 300 nM
IC50 [3]: 200 nM
IC50 [4]: 600 nM
IC50 [5]: 1200 nM

SMILES: CC(=O)O[C@@H]1C[C@]2(O)[C@@H]3CC[C@H]4C[C@H]5O[C@@H]6O[C@H](C)C[C@H](O)[C@]6(O)O[C@@H]5C[C@]4(C=O)[C@H]3C[C@@H](O)[C@]2(C)[C@H]1C1=CC(=O)OC1
IC50 [1]: 4200 nM
IC50 [2]: 500 nM
IC50 [3]: 400 nM
IC50 [4]: 700 nM
IC50 [5]: 6500 nM

SMILES: C[C@]12CC[C@H](O)C[C@@H]1CC[C@@H]1[C@@H]2CC[C@]2(C)[C@@H](C3=CC(=O)OC3)CC[C@]12O
IC50 [1]: 300 nM
IC50 [2]: 3000 nM
IC50 [3]: 6000 nM
IC50 [4]: 8000 nM
IC50 [5]: 6000 nM

SMILES: C[C@]12CC[C@H]3[C@@H](CC[C@H]4C[C@H]5O[C@@H]6O[C@H](CO)C[C@H](O)[C@]6(O)O[C@@H]5C[C@@]43C=O)[C@@]1(O)CC[C@@H]2C1=CC(=O)OC1
IC50 [1]: 3200 nM
IC50 [2]: 300 nM
IC50 [3]: 1800 nM
IC50 [4]: 1400 nM
IC50 [5]: 5000 nM

SMILES: C[C@@H]1C[C@@H](O)[C@]2(O)O[C@@H]3C[C@@]4(C=O)[C@@H](CC[C@@H]5[C@@H]4CC[C@]4(C)[C@@H](C6=CC(=O)OC6)CC[C@]54O)C[C@H]3O[C@@H]2O1 [CALACTIN]
IC50 [1]: 3700 nM
IC50 [2]: 200 nM
IC50 [3]: 200 nM
IC50 [4]: 500 nM
IC50 [5]: 900 nM

SMILES: C[C@]12CC[C@H](O[C@@H]3O[C@H](CO)[C@@H](O)[C@H](O)[C@H]3O)C[C@@H]1CC[C@@H]1[C@@H]2CC[C@]2(C)[C@@H](C3=CC(=O)OC3)CC[C@]12O [DESGLUCOUZARIN]
IC50 [1]: 300 nM
IC50 [2]: 600 nM
IC50 [3]: 6000 nM
IC50 [4]: 6500 nM
IC50 [5]: 8000 nM

SMILES: C[C@@H]1C[C@@H](O[C@@H]2O[C@H](CO)[C@@H](O)[C@H](O)[C@H]2O)[C@]2(O)O[C@@H]3C[C@@]4(C=O)[C@@H](CC[C@@H]5[C@@H]4CC[C@]4(C)[C@@H](C6=CC(=O)OC6)CC[C@]54O)C[C@H]3O[C@@H]2O1
IC50 [1]: 1000 nM
IC50 [2]: 600 nM
IC50 [3]: 200 nM
IC50 [4]: 300 nM
IC50 [5]: 4400 nM

SMILES: COc1cc(/C=C/C(=O)OC[C@H]2O[C@@H](O[C@H]3CC[C@@]4(C)[C@@H](CC[C@@H]5[C@@H]4CC[C@]4(C)[C@@H](C6=CC(=O)OC6)CC[C@]54O)C3)[C@H](O)[C@@H](O)[C@@H]2O)ccc1O
IC50 [1]: 300 nM
IC50 [2]: 4500 nM
IC50 [3]: 200 nM
IC50 [4]: 6000 nM
IC50 [5]: 5800 nM

SMILES: C[C@@H]1C[C@H](O)[C@]2(O)O[C@@H]3C[C@@]4(C=O)[C@@H](CC[C@@H]5[C@@H]4C[C@@H](O)[C@]4(C)[C@@H](C6=CC(=O)OC6)[C@H](O)C[C@]54O)C[C@H]3O[C@@H]2O1
IC50 [1]: 600 nM
IC50 [2]: 2300 nM
IC50 [3]: 7000 nM
IC50 [4]: 4300 nM
IC50 [5]: 1500 nM
Activity [6]: Active
